# Laboratory results taken from ChEMBL document CHEMBL3217422, “Design of membrane targeting tobramycin-based cationic amphiphiles with reduced hemolytic activity” (Medchemcomm, 2013).
# Legend:
# [1] = Induction of hemolysis in rat RBC assessed as hemoglobin release at 64 ug/ml after 1 hr by microplate reader analysis; type: cell-based, Erythrocyte; details: red blood cells, read-out: Activity
# [2] = system: Shigella sonnei; assay: Antibacterial activity against O-antigen negative Shigella sonnei clinical isolate 6831 assessed as growth inhibition after 24 hrs by double dilution method; type: functional; details: isolate 6831, 24 h
# [3] = system: Shigella sonnei; assay: Antibacterial activity against O-antigen positive Shigella sonnei clinical isolate 6831 assessed as growth inhibition after 24 hrs by double dilution method; type: functional; details: isolate 6831, 24 h
# [4] = system: Pseudomonas aeruginosa; assay: Antibacterial activity against Pseudomonas aeruginosa ATCC 33347 assessed as growth inhibition after 24 hrs by double dilution method; type: functional; details: ATCC 33347, 24 h
# [5] = system: Staphylococcus epidermidis; assay: Antibacterial activity against Staphylococcus epidermidis ATCC 12228 assessed as growth inhibition after 24 hrs by double dilution method; type: functional; details: ATCC 12228, 24 h
# [6] = system: Staphylococcus epidermidis; assay: Antibacterial activity against Staphylococcus epidermidis ATCC 35984 assessed as growth inhibition after 24 hrs by double dilution method; type: functional; details: ATCC 35984, 24 h
# [7] = system: Staphylococcus aureus; assay: Antibacterial activity against Staphylococcus aureus ATCC 9144 assessed as growth inhibition after 24 hrs by double dilution method; type: functional; details: ATCC 9144, 24 h
# [8] = system: Enterococcus faecalis; assay: Antibacterial activity against Enterococcus faecalis ATCC 29212 assessed as growth inhibition after 24 hrs by double dilution method; type: functional; details: ATCC 29212, 24 h
# [9] = system: Enterococcus; assay: Antibacterial activity against vancomycin-resistant Enterococcus assessed as growth inhibition after 24 hrs by double dilution method; type: functional
# [10] = system: Streptococcus mutans; assay: Antibacterial activity against Streptococcus mutans UA159 assessed as growth inhibition after 24 hrs by double dilution method; type: functional; details: UA159, 24 h
# [11] = system: Staphylococcus aureus; assay: Antibacterial activity against Methicillin-resistant Staphylococcus aureus assessed as growth inhibition after 24 hrs by double dilution method; type: functional
# [12] = Antibacterial activity against Streptococcus pyogenes serotype M12 strain MGAS9429 assessed as growth inhibition after 24 hrs by double dilution method; type: functional; details: MGAS9429, 24 h
# [13] = Induction of hemolysis in rat RBC assessed as hemoglobin release at 32 ug/ml after 1 hr by microplate reader analysis; type: cell-based, Erythrocyte; details: red blood cells, read-out: Activity
# [14] = system: Staphylococcus epidermidis; assay: Antibacterial activity against Staphylococcus epidermidis ATCC 35984 assessed as biofilm growth inhibition after 24 hrs by double dilution method; type: functional
# [15] = system: Streptococcus mutans; assay: Antibacterial activity against Streptococcus mutans UA159 assessed as biofilm growth inhibition after 24 hrs by double dilution method; type: functional
# [16] = system: Streptococcus pyogenes serotype M12; assay: Ratio of tobramycin MIC to compound MIC against Streptococcus pyogenes serotype M12 strain MGAS9429 after 24 hrs by double dilution method; type: functional
# [17] = Induction of hemolysis in rat RBC assessed as hemoglobin release at 128 ug/ml after 1 hr by microplate reader analysis; type: cell-based, Erythrocyte; details: red blood cells, read-out: Activity
# [18] = Induction of hemolysis in rat RBC assessed as hemoglobin release at 32 to 128 ug/ml after 1 hr by microplate reader analysis; type: cell-based; details: erythrocyte
Compound,"hemolysis at 1 h, 64 ug/ml [1] [%]",MIC [2] [µg/mL],MIC [3] [µg/mL],MIC [4] [µg/mL],MIC [5] [µg/mL],MIC [6] [µg/mL],MIC [7] [µg/mL],MIC [8] [µg/mL],MIC [9] [µg/mL],MIC [10] [µg/mL],MIC [11] [µg/mL],MIC [12] [µg/mL],"hemolysis at 1 h, 32 ug/ml [13] [%]",MBIC [14] [µg/mL],MBIC [15] [µg/mL],Ratio [16],"hemolysis at 1 h, 128 ug/ml [17] [%]",Activity [18]
CCCCCCCCCCCCCCCCSC[C@H]1O[C@H](O[C@@H]2[C@@H](O)[C@H](O[C@H]3O[C@H](CN)[C@@H](O)C[C@H]3N)[C@@H](N)C[C@H]2N)[C@H](O)[C@@H](N)[C@@H]1O,37.9,64,32,> 128,4,8,16,128,64,4,64,4,,,,,,
CCCCCCCCCCCCCCSC[C@H]1O[C@H](O[C@@H]2[C@@H](O)[C@H](O[C@H]3O[C@H](CN)[C@@H](O)C[C@H]3N)[C@@H](N)C[C@H]2N)[C@H](O)[C@@H](N)[C@@H]1O,74.4,32,16,128,4,4,8,64,16,2,32,2,23,8,4,16,,
CCCCCCCCCCCCCCC(=O)NC[C@H]1O[C@H](O[C@@H]2[C@@H](O)[C@H](O[C@H]3O[C@H](CN)[C@@H](O)C[C@H]3N)[C@@H](N)C[C@H]2N)[C@H](O)[C@@H](N)[C@@H]1O,74.4,32,16,128,4,4,8,64,32,4,32,4,23,8,4,16,,
CCCCCCCCCCCCCCCCc1cn(C[C@H]2O[C@H](O[C@@H]3[C@@H](O)[C@H](O[C@H]4O[C@H](CN)[C@@H](O)C[C@H]4N)[C@@H](N)C[C@H]3N)[C@H](O)[C@@H](N)[C@@H]2O)nn1,37.9,64,128,> 128,4,8,16,128,16,8,32,16,,,,,,
CCCCCCCCCCCCSC[C@H]1O[C@H](O[C@@H]2[C@@H](O)[C@H](O[C@H]3O[C@H](CN)[C@@H](O)C[C@H]3N)[C@@H](N)C[C@H]2N)[C@H](O)[C@@H](N)[C@@H]1O,,64,32,128,8,8,16,128,64,8,64,8,,16,4,,71.6,
CCCCCCCCCCCCCCCCC(=O)NC[C@H]1O[C@H](O[C@@H]2[C@@H](O)[C@H](O[C@H]3O[C@H](CN)[C@@H](O)C[C@H]3N)[C@@H](N)C[C@H]2N)[C@H](O)[C@@H](N)[C@@H]1O,37.9,32,32,128,4,4,8,128,32,4,32,8,,,,,,
CCCCCCCCCCCCc1cn(C[C@H]2O[C@H](O[C@@H]3[C@@H](O)[C@H](O[C@H]4O[C@H](CN)[C@@H](O)C[C@H]4N)[C@@H](N)C[C@H]3N)[C@H](O)[C@@H](N)[C@@H]2O)nn1,26.3,64,64,64,16,8,16,128,32,4,128,8,,16,4,,89.1,
CCCCCCCCCCCCCCCCS(=O)(=O)C[C@H]1O[C@H](O[C@@H]2[C@@H](O)[C@H](O[C@H]3O[C@H](CN)[C@@H](O)C[C@H]3N)[C@@H](N)C[C@H]2N)[C@H](O)[C@@H](N)[C@@H]1O,37.9,128,32,> 128,16,16,8,64,32,8,32,8,,,,,,
CCCCCCCCCCCCCCS(=O)(=O)C[C@H]1O[C@H](O[C@@H]2[C@@H](O)[C@H](O[C@H]3O[C@H](CN)[C@@H](O)C[C@H]3N)[C@@H](N)C[C@H]2N)[C@H](O)[C@@H](N)[C@@H]1O,74.4,64,32,128,16,16,16,64,32,4,64,4,23,8,4,,,
CCCCCCCCCCCCC(=O)NC[C@H]1O[C@H](O[C@@H]2[C@@H](O)[C@H](O[C@H]3O[C@H](CN)[C@@H](O)C[C@H]3N)[C@@H](N)C[C@H]2N)[C@H](O)[C@@H](N)[C@@H]1O,0,128,128,32,8,8,16,128,64,4,128,16,,8,8,,10.2,
NC[C@H]1O[C@H](O[C@H]2[C@H](O)[C@@H](O[C@H]3O[C@H](CO)[C@@H](O)[C@H](N)[C@H]3O)[C@H](N)C[C@@H]2N)[C@H](N)C[C@@H]1O [TOBRAMYCIN],,32,16,> 128,< 1,128,16,> 128,> 128,128,> 128,64,,128,64,,,
CCCCCCCCCCCCCCc1cn(C[C@H]2O[C@H](O[C@@H]3[C@@H](O)[C@H](O[C@H]4O[C@H](CN)[C@@H](O)C[C@H]4N)[C@@H](N)C[C@H]3N)[C@H](O)[C@@H](N)[C@@H]2O)nn1,74.4,32,32,128,4,8,8,128,32,4,64,4,23,16,4,16,,
CCCCCCCCCCCCS(=O)(=O)C[C@H]1O[C@H](O[C@@H]2[C@@H](O)[C@H](O[C@H]3O[C@H](CN)[C@@H](O)C[C@H]3N)[C@@H](N)C[C@H]2N)[C@H](O)[C@@H](N)[C@@H]1O,,> 128,> 128,> 128,128,64,64,> 128,64,16,> 128,32,,32,16,,,Toxic
